Laboratory results as given in patent EP4509511A1, “SUBSTITUTED SPIRO-ISOXAZOLINYL LACTAMS, SALTS THEREOF AND THEIR USE AS HERBICIDALLY ACTIVE SUBSTANCES” (Bayer Aktiengesellschaft, priority 2023, dated 2025).

What was measured:
POAAN = assay: Herbicidal pre-emergence action - Part I; type: in vivo, Poa annua; settings: visual grading after ca. 3 weeks vs untreated controls
Method in brief: (§1)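 Visual % injury, ~3 weeks post-application, relative to untreated pots. Treatment: aqueous WP/EC preparation with 0.5% additive sprayed pre-emergence on soil at 600 l/ha, application rate 1280 g/ha or less.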

ZEAMX [1] = assay: Pre-emergence effects on crop plants; type: in vivo, Zea mays; settings: crop plant
Excerpt: (§2) Seeds of mono- and dicotyledonous weed plants and crop plants were sown, in plastic or organic planting pots, in sandy loam and covered with soil. The compounds according to the invention, formulated in the form of wettable powders (WP) or as emulsifiable concentrates (EC), were applied to the surface of the covering soil as aqueous suspension or emulsion, with the addition of 0.5% of an additive, at an application rate of 600 1 of water/ha (converted). Following treatment, the pots were placed in a greenhouse and kept under optimum growth conditions for the test plants. The visual grading of the damage to the test plants was carried out after ca. 3 weeks in comparison to untreated controls (herbicidal effect in percent (%): 100% effect = plants have died off, 0% effect = as control plants). Tables D1 to D5 below show the effects of various compounds of the general formula (I) according to Table 1 on various crop plants and an application rate corresponding to 320 g/ha or below obtained by the experimental procedure mentioned above in Biological Examples, Section C. Table […]: pre-emergence activity at 320g/ha against ZEAMX in %

TRZAS = assay: Pre-emergence effects on crop plants; type: in vivo, Triticum aestivum; settings: crop plant
Excerpt: as §2

ORYZA [2] = assay: Post-emergence effects on crop plants; type: in vivo, Oryza sativa; settings: crop plant
Excerpt: Seeds of mono- and dicotyledonous weed plants and crop plants were sown, in plastic or organic planting pots, in sandy loam, covered with soil and grown in a greenhouse under controlled growth conditions. 2 to 3 weeks after sowing, the test plants were sprayed in the single-leaf stage. The compounds according to the invention, formulated in form of wettable powders (WP) or as emulsifiable concentrates (EC), were sprayed onto the green plant parts as aqueous suspension or emulsion, with the addition of 0.5% of an additive, at an application rate of 600 1 of water/ha (converted). The test plants were placed in the greenhouse for ca. 3 weeks under optimum growth conditions, and then the effect of the preparations was assessed visually in comparison with untreated controls (herbicidal effect in percent (%): 100% effect = plants have died off, 0% effect = as control plants). Tables F1 to F5 below show the effects of selected compounds of the general formula (I) according to table 1 on various crop plants and an application rate corresponding to 320 g/ha or below obtained by the experimental procedure mentioned above. Table […]: post-emergence activity at 5g/ha against ZEAMX in %

AMARE [3] = assay: Herbicidal pre-emergence action - Part I; type: in vivo, Amaranthus retroflexus; settings: for pre-emergence activity at 320g/ha against AMARE in % / pre-emergence activity at 1280g/ha against AMARE in %: visual grading after ca. 3 weeks vs untreated controls
Method in brief: as §1

AMARE [4] = assay: Herbicidal pre-emergence action - Part II; type: in vivo, Amaranthus retroflexus; settings: visual grading after ca. 3 weeks vs untreated controls
Excerpt: (§3) Seeds of mono- and dicotyledonous weed plants and crop plants were sown, in plastic or organic planting pots, in sandy loam and covered with soil. The compounds according to the invention, formulated in the form of wettable powders (WP) or as emulsifiable concentrates (EC), were applied to the surface of the covering soil as aqueous suspension or emulsion, with the addition of 0.5% of an additive, at an application rate of 600 1 of water/ha (converted). Following treatment, the pots were placed in a greenhouse and kept under optimum growth conditions for the test plants. The visual grading of the damage to the test plants was carried out after ca. 3 weeks in comparison to untreated controls (herbicidal effect in percent (%): 100% effect = plants have died off, 0% effect = as control plants). Tables C1 to C12 below show the effects of selected compounds of the general formula (I) according to table 1 on various harmful plants and an application rate corresponding to 320 g/ha or below obtained by the experimental procedure mentioned above. Table C1: pre-emergence activity at 320g/ha against ABUTH in %

ECHCG = assay: Herbicidal pre-emergence action - Part II; type: in vivo, Echinochloa crus-galli
Excerpt: as §3

ORYZA [5] = assay: Pre-emergence effects on crop plants; type: in vivo, Oryza sativa; settings: crop plant
Excerpt: as §2

KCHSC = assay: Herbicidal post-emergence action - Part I; type: in vivo, Kochia scoparia; settings: one-leaf stage, rated visually after about 3 weeks vs untreated controls
Method in brief: (§4)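 Activity was scored visually as % damage (100% = dead, 0% = like untreated) about 3 weeks after treatment. Plants at the one-leaf stage, 2-3 weeks old, were sprayed with WP/EC formulations plus 0.5% additive (600 L/ha water, up to 1280 g/ha). Plants were grown in sandy loam in a greenhouse.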

ZEAMX [6] = assay: Post-emergence effects on crop plants; type: in vivo, Zea mays; settings: crop plant
Method in brief: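 Crop plants were grown in sandy loam in the greenhouse and sprayed at the single-leaf stage, 2–3 weeks after sowing, with WP or EC formulations plus 0.5% additive in 600 l water/ha, at rates of 320 g/ha or below. Injury was scored visually about 3 weeks later as % effect versus untreated controls (100% = plants dead).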

MATIN = assay: Herbicidal post-emergence action - Part I; type: in vivo, Matricaria inodora; settings: one-leaf stage, rated visually after about 3 weeks vs untreated controls
Method in brief: as §4

Cc1ccsc1C1=NOC2(CCN(Cc3c(F)cccc3F)C2=O)C1 (racemic) [Compound I-16, 7-(2,6-Difluorobenzyl)-3-(3-methyl-2-thienyl)-1-oxa-2,7-diazaspiro[4.4]non-2-en-6-one]
pre-emergence activity at 320g/ha and against POAAN in % (POAAN): 100%
pre-emergence activity at 1280g/ha and against POAAN in % (POAAN): 100%
pre-emergence activity against ZEAMX (ZEAMX [1]; 80 g/ha, Table D1b): 10%
pre-emergence activity against ZEAMX (ZEAMX [1]; 320 g/ha, Table D1a): 20%
pre-emergence activity against TRZAS (TRZAS; 80 g/ha, Table D2b): 10%
pre-emergence activity against TRZAS (TRZAS; Table D2a, title: 320g/ha, application rate: 80 g/ha): 10%
post-emergence activity against ORYZA (ORYZA [2]; 320 g/ha, Table F3a): 0%
post-emergence activity against ORYZA (ORYZA [2]; Table F3b, title: 80g/ha, application rate column: 320 g/ha): 0%
pre-emergence activity at 320g/ha against AMARE in % (AMARE [3]): 90%
pre-emergence activity at 1280g/ha against AMARE in % (AMARE [3]): 90%
pre-emergence activity at 320g/ha against AMARE in % (AMARE [4]): 80%
pre-emergence activity against ECHCG (ECHCG; 320 g/ha, Table C6a): 90%
pre-emergence activity against ORYZA (ORYZA [5]; 80 g/ha, Table D3b): 0%
pre-emergence activity against ORYZA (ORYZA [5]; Table D3a, title: 320g/ha, application rate: 80 g/ha): 20%
post-emergence activity at 1280g/ha against KCHSC in % (KCHSC): 90%
post-emergence activity against ZEAMX (ZEAMX [6]; 80 g/ha, Table F1c): 0%
post-emergence activity against ZEAMX (ZEAMX [6]; 320 g/ha, Table F1d): 0%
post-emergence activity at 1280g/ha against MATIN in % (MATIN): 90%

O=C1N(Cc2ccccc2F)CCC12CC(c1c(F)cccc1F)=NO2 (racemic) [Compound I-10]
pre-emergence activity at 320g/ha and against POAAN in % (POAAN): 90%
pre-emergence activity at 1280g/ha and against POAAN in % (POAAN): 100%
pre-emergence activity against ZEAMX (ZEAMX [1]; 80 g/ha, Table D1b): 0%
pre-emergence activity against ZEAMX (ZEAMX [1]; 320 g/ha, Table D1a): 0%
pre-emergence activity against TRZAS (TRZAS; 80 g/ha, Table D2b): 0%
post-emergence activity against ORYZA (ORYZA [2]; 320 g/ha, Table F3a): 0%
pre-emergence activity at 80g/ha against AMARE in % (AMARE [3]; 80 g/ha, 504 h): 90%
pre-emergence activity at 320g/ha against AMARE in % (AMARE [3]): 90%
pre-emergence activity at 1280g/ha against AMARE in % (AMARE [3]): 90%
pre-emergence activity at 320g/ha against AMARE in % (AMARE [4]): 80%
pre-emergence activity against ECHCG (ECHCG; 320 g/ha, Table C6a): 90%
pre-emergence activity against ORYZA (ORYZA [5]; 80 g/ha, Table D3b): 0%
post-emergence activity at 320g/ha against KCHSC in % (KCHSC): 90%
post-emergence activity at 1280g/ha against KCHSC in % (KCHSC): 90%
post-emergence activity against ZEAMX (ZEAMX [6]; 80 g/ha, Table F1c): 0%
post-emergence activity against ZEAMX (ZEAMX [6]; 320 g/ha, Table F1d): 0%
post-emergence activity at 320g/ha against MATIN in % (MATIN): 90%
post-emergence activity at 1280g/ha against MATIN in % (MATIN): 90%

Cc1ccsc1C1=NOC2(CCCN(Cc3c(F)cccc3F)C2=O)C1 (racemic) [Compound I-2]
pre-emergence activity at 80g/ha and against POAAN in % (POAAN; 80 g/ha): 100%
pre-emergence activity at 320g/ha and against POAAN in % (POAAN): 100%
pre-emergence activity at 1280g/ha and against POAAN in % (POAAN): 100%
pre-emergence activity against ZEAMX (ZEAMX [1]; 80 g/ha, Table D1b): 0%
pre-emergence activity against ZEAMX (ZEAMX [1]; 320 g/ha, Table D1a): 0%
pre-emergence activity against TRZAS (TRZAS; 80 g/ha, Table D2b): 0%
post-emergence activity against ORYZA (ORYZA [2]; 320 g/ha, Table F3a): 20%
pre-emergence activity at 320g/ha against AMARE in % (AMARE [3]): 90%
pre-emergence activity at 1280g/ha against AMARE in % (AMARE [3]): 90%
pre-emergence activity at 320g/ha against AMARE in % (AMARE [4]): 90%
pre-emergence activity against ECHCG (ECHCG; 80 g/ha, Table C6b): 90%
pre-emergence activity against ECHCG (ECHCG; 320 g/ha, Table C6a): 100%
pre-emergence activity against ORYZA (ORYZA [5]; 80 g/ha, Table D3b): 0%
post-emergence activity at 320g/ha against KCHSC in % (KCHSC): 90%
post-emergence activity at 1280g/ha against KCHSC in % (KCHSC): 90%
post-emergence activity against ZEAMX (ZEAMX [6]; 80 g/ha, Table F1c): 0%
post-emergence activity against ZEAMX (ZEAMX [6]; 320 g/ha, Table F1d): 20%
post-emergence activity at 320g/ha against MATIN in % (MATIN): 90%
post-emergence activity at 1280g/ha against MATIN in % (MATIN): 90%
